Data taken from publication PMC4640659, “Antidepressant- and Anxiolytic-Like Effects of New Dual 5-HT1A and 5-HT7 Antagonists in Animal Models” (PLoS ONE, 2015).
pIC50, pKi: −log10 of the molar value. “Also recorded” adds a separate entry of the source. Where a name gives a salt, the structure may show the parent alone.

Key:
[1] = system: mice; assay: Four-plate test in mice; format: in vivo
[2] = system: mice; assay: Forced swim test (FST) in mice; format: in vivo; conditions: for Decrease of immobility time: vs control; for Effect on immobility time, given alone at sub-effective dose: i.p., fluoxetine 10, reboxetine 5, bupropion 2.5, HBK-14 1.25, HBK-15 0.625 mg/kg
Method: The studies were carried out on mice according to the method described by Porsolt et al.. The animals were dropped individually into glass cylinders (height 25 cm, diameter 10 cm) containing 10 cm of water, maintained at 23–25°C. Mice were left in the cylinder for 6 min. […] The mouse was judged to be immobile when it remained floating passively in the water.

[3] = system: rats; assay: FST in rats; format: in vivo
Method: The experiment was carried out according to the method of Detke et al. [33]. On the first experimental day rats were placed individually in Plexiglas cylinders (40 cm height, 18 cm in diameter) containing 30 cm of water maintained at 25°C for 15 min. After that time the rats were placed for 30 min under a 60-W bulb to dry. 24 hours after the pre-test, the rats were placed again in the cylinders and the total duration of immobility (when a rat remained floating in the water without struggling and was making only those movements necessary to keep its head above water), swimming (when a rat was making active swimming motions, more than necessary to merely maintain its head above water, e.g. moving around in the cylinder) and climbing (when a rat was making active movements with its forepaws in and out of the water, usually directed against the walls) was recorded during the whole 5-min test period. Fresh water was used for each animal.

[4] = target: 5-HT7 receptors; conditions: authors' previous studies; cited from earlier work
[5] = system: rats; assay: Elevated plus maze (EPM) test in rats; format: in vivo
Source text: Plus-maze apparatus (an automated device produced by Campden Instruments Ltd, UK) made of durable, high density, nonporous black plastic, elevated to a height of 50 cm, consisted of two open arms (50 cm x 10 cm) and two closed arms (50 cm x 10 cm, and 30 cm high walls), arranged so that the two arms of each type were opposite each other. Floor of the plus-maze was made of infrared transparent material what means that there are no visible sensors. The plus-maze was placed in a darkened room; only the centre of the apparatus was illuminated with low-density light (30 lux measured on the maze level). Plus-maze apparatus was connected to PC software by control chassis. Each rat was gently placed in the centre of the plus-maze, facing one of the closed arms, immediately after a 5-min adaptation period in a plastic black box (60 cm x 60 cm x 35 cm). During a 5-min test period, automated Motor Monitor System recorded the number of entries into the closed and open arms, the time spent in either type of the arms. After each trial the maze was wiped clean. Studied compounds and reference drug were administered (i.p.) 30 min before the test.

[6] = target: α1-adrenoceptor; assay: Radioligand binding, [3H]-prazosin, rat cerebral cortex; conditions: read-out: Adrenergic Ki α1
[7] = target: T1, human D2 receptor (Homo sapiens, UniProt P14416); assay: Radioligand binding, [3H]-methylspiperon, CHO-K1 cell membranes; conditions: read-out: Dopaminergic Ki D2
T1 construct: expressed in transfected cells; host or cells: CHO-K1
T1 sequence (P14416 whole entry): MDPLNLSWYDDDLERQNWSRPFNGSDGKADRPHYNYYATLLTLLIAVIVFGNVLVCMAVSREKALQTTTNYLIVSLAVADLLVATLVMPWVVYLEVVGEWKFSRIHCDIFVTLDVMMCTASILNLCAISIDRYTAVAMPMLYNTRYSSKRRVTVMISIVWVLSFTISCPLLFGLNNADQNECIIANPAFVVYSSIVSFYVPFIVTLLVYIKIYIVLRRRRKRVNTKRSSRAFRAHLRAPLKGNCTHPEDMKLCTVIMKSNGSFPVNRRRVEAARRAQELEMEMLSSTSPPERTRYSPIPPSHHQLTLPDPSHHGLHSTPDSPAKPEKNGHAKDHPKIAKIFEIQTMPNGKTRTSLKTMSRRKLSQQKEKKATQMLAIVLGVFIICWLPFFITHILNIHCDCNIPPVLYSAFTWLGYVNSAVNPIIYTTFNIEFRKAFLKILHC
Method: Radioligand binding was performed using membranes from CHO-K1 cells stably transfected with the human D2 receptor. All assays were carried out in duplicates. […] (+)-butaclamol (10 μM) was used to define nonspecific binding. Microplate was covered with a sealing tape, mixed and incubated for 60 minutes at 37°C. The reaction was terminated by rapid filtration through GF/C filter mate pre-soaked with 0.3% polyethyleneimine for 30 minutes. Ten rapid washes with 200 μl 50 mM Tris buffer (4°C, pH 7.4) were performed using automated harvester system Harvester-96 MACH III FM (Tomtec). The filter mates were dried at 37°C in forced air fan incubator and then solid scintillator MeltiLex was melted on filter mates at 90°C for 5 minutes. Radioactivity was counted in MicroBeta2 scintillation counter (PerkinElmer) at approximately 30% efficiency. Ki values were calculated.

[8] = target: T2, human 5-HT2A receptor (Homo sapiens, UniProt P28223); assay: Radioligand binding, [3H]-ketanserin, CHO-K1 cell membranes; conditions: read-out: Serotonergic Ki 5-HT2A
T2 construct: expressed in transfected cells; host or cells: CHO-K1
T2 sequence (P28223 whole entry): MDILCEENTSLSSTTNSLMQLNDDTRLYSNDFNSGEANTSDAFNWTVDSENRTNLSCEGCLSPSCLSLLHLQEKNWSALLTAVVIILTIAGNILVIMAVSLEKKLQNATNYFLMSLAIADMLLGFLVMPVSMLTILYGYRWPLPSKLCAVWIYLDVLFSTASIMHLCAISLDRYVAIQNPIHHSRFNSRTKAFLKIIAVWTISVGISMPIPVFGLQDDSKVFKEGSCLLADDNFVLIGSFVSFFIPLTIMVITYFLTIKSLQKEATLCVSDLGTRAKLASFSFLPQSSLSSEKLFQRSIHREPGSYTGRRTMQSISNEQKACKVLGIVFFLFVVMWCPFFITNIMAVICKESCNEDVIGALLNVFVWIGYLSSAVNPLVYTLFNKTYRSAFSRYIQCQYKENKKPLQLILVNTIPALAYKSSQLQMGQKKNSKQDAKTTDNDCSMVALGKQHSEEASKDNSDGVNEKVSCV
Method: Radioligand binding was performed using membranes from CHO-K1 cells stably transfected with the human 5-HT2A receptor. Monolayer of CHO-K1 cells with stable expression of human receptor after reaching about 90% confluence was washed twice with PBS. After that the cells were scrapped and collected to centrifuge tubes. About 20 volumes of assay buffer was added to each tube and cells were homogenized (3 x 10 sec., 24 000 rpm; Ultra Turrax T25B homogenizator, IKA Labortechnik, USA). Tubes were centrifuged (20 min., 30 000 x g, about 4°C; 3K30 centrifuge, Sigma Laborzentrifugen, Germany). Supernatant was discarded and appropriate volume of assay buffer with 10% glycerol was added and homogenization was repeated. Membrane suspension was aliquoted into cryotubes, freezed in liquid nitrogen and stored until assay in -80°C. Membrane protein concentration was determined by BCA method. Immediately before assay frozen membranes were thawed quickly (about 35°C), mixed and homogenized (60 sec., 24,000 rpm) with appropriate volume of assay buffer to reach desired membrane protein concentration. All assays were carried out in duplicates. […] Microplate was covered with a sealing tape, mixed and incubated for 60 minutes at 27°C. […] Radioactivity was counted in MicroBeta2 scintillation counter (PerkinElmer) at approximately 30% efficiency. Inhibition constants (Ki) were calculated.

[9] = target: 5-HT1A receptors; conditions: authors' previous studies; cited from earlier work
[10] = target: 5-HT6 receptors; conditions: authors' former studies; cited from earlier work
[11] = target: T3, Serotonin transporter (SERT) (Rattus norvegicus, UniProt P31652); assay: Radioligand binding, [3H]-citalopram, rat cerebral cortex; conditions: read-out: Serotonergic Ki SERT
T3 construct: Rat cerebral cortex was homogenized; from tissue; host or cells: rat cerebral cortex
T3 sequence (P31652 whole entry): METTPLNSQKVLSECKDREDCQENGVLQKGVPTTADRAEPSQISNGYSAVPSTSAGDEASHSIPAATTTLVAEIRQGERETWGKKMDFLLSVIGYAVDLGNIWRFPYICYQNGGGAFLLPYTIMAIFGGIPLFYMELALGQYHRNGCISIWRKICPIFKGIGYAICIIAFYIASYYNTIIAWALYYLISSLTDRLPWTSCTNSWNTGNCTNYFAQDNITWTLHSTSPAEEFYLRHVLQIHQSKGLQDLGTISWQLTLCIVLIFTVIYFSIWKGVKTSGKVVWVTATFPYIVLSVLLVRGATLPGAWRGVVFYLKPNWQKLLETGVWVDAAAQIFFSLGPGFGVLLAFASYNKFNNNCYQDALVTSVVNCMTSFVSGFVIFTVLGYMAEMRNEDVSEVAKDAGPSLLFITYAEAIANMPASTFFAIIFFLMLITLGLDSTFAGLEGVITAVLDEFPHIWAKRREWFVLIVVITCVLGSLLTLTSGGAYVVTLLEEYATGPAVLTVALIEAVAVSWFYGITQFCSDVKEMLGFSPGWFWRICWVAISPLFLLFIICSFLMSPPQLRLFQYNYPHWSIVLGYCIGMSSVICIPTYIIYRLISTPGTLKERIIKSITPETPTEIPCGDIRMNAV
Method: The supernatant was decanted and pellet was re-suspended in 30 volumes of buffer and centrifuged again. The resulting pellet was re-suspended in the same quantity of the buffer and centrifuged third time in the same conditions. […] Ki values were calculated.

[12] = target: T4, human serotonin 5-HT7 receptor (Homo sapiens, UniProt P34969); assay: cAMP functional assay (LANCE Ultra TR-FRET), CHO-K1 cells; format: cell-based; conditions: for Kb / Antagonist activity weaker than reference antagonist SB-269970 / Emax: 5-HT7; for Kb: Cheng-Prusoff equation, read-out: Antagonist mode Kb; for Antagonist activity weaker than reference antagonist SB-269970: range over HBK-14 and HBK-15; for Emax: CHO-K1, mean of two independent experiments in duplicate, read-out: Agonist mode Emax
T4 construct: host or cells: CHO-K1 (with CRE-bla reporter)
T4 sequence (P34969 whole entry): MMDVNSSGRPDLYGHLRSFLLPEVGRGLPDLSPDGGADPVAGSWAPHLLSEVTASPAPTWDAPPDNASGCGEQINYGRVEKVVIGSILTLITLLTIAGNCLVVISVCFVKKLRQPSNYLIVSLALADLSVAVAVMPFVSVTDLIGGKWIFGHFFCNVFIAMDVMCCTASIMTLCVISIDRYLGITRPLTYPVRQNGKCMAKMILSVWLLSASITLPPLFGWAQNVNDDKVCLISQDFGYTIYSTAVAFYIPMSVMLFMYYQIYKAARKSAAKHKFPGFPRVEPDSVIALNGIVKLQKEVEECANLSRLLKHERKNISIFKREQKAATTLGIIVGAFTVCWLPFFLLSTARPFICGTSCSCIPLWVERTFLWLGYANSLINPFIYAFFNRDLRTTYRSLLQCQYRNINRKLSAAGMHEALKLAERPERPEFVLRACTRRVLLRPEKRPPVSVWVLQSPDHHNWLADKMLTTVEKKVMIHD
Method: CHO-K1 cells were transfected with a beta lactamase (bla) reporter gene under control of the cyclic AMP response element (CRE) (Life Technologies).
Thawed cells were resuspended in stimulation buffer (HBSS, 5 mM HEPES, 0.5 IBMX, and 0.1% BSA at pH 7.4) at 2x10^5 cells/ml for 5-HT7 receptor. The same volume (10 μl) of cell suspension was added to tested compounds for 5-HT7 receptor. Samples were loaded onto a white opaque half area 96-well microplate. […] The agonist and antagonist were added simultaneously. Cell stimulation was performed for 1h at room temperature. After incubation, cAMP measurements were performed with homogeneous TR-FRET immunoassay using the LANCE Ultra cAMP kit (PerkinElmer, USA). 10 μl of EucAMP Tracer Working Solution and 10 μl of ULight-anti-cAMP Tracer Working Solution were added, mixed, and incubated for 1 h. The TR-FRET signal was read on an EnVision microplate reader (PerkinElmer, USA).

[13] = system: levels of serotonin; parameters: method as in PMID 9044239; conditions: mice, 3-day treatment 200 mg/kg; cited from earlier work
[14] = i.p., ANOVA over the doses tested
[15] = 5 mg/kg i.p. 30 min before test
[16] = 1.25 mg/kg i.p. 30 min before test
[17] = 2.5 mg/kg i.p. 30 min before test
[18] = 2.5 mg/kg i.p., pCPA interaction experiment (Fig 8A, 8B)
[19] = pCPA 200 mg/kg i.p. once daily for 3 days

Structure (SMILES): COc1ccccc1N1CCN(CCN(C(=O)C2CCCCC2)c2ccccn2)CC1.Cl.Cl.Cl [WAY-100635, N-{2-[4-(2-methoxyphenyl)-1-piperazinyl]ethyl}-N-(2-pyridinyl)cyclohexanecarboxamide trihydrochloride, reference compound]
- Effect on the number of punished crossings, given alone ([1]; WAY-100635 0.1 mg/kg s.c., 0.1 mg/kg): had no effect; also recorded: showed no effect
- Effect on duration of immobility time, given alone ([2]; WAY-100635 0.1 mg/kg s.c.): had no effect

Structure (SMILES): CN(C)CCCN1c2ccccc2CCc2ccccc21 [Imipramine, imipramine, reference compound]
- Decrease of immobility time ([3]; 10 mg/kg i.p. 30 min before test): 51%
- Effect on duration of swimming [3, 14]: no significant effect
- Decrease of immobility time [2, 15]: 50%

Structure (SMILES): COc1ccccc1N1CCN(CCOCCOc2c(C)cccc2Cl)CC1 [HBK-15, 2-[2-(2-chloro-6-methylphenoxy)ethoxy]ethyl-4-(2-methoxyphenyl)piperazynine dihydrochloride]
- pKi [4]: 7.47
- Increase of the percentage of open-arm entries [5, 15]: 89%
- Increase of the percentage of time spent in the open arms [5, 15]: 198%
- pKi [6]: 7.89
- pKi [7]: 7.27
- Increase of swimming time ([3]; 1.25 mg/kg i.p.): 166%
- Decrease of immobility time [3, 16]: 30%
- Increase of swimming time ([3]; 2.5 mg/kg i.p.): 191%
- Decrease of immobility time [3, 17]: 38%
- Effect on duration of climbing [3, 14]: no significant influence
- Increase of the number of punished crossings [1, 17]: 52%
- Increase of the number of punished crossings ([1]; 2.5 mg/kg i.p., WAY-100635 interaction experiment (Fig 8C, 8D), 2.5 mg/kg): 111%
- Increase of the number of punished crossings [1, 18]: 109%
- Increase of the number of punished crossings [1, 15]: 88%
- pKi [8]: 6.96
- pKi [9]: > 9.00
- pKi [10]: 5.02
- Decrease of immobility time [2, 16]: 40%
- Reduction of immobility ([2]; 1.25 mg/kg i.p., pCPA interaction experiment (Fig 5B)): 22%
- Decrease of immobility time [2, 17]: 42%
- Decrease of immobility time [2, 15]: 46%
- Effect on immobility time, given alone at sub-effective dose [2]: none of tested compounds (HBK-14 1.25 mg/kg and HBK-15 0.625 mg/kg) administered alone affected the mouse immobility
- pKi [11]: 6.28
- pIC50 [12]: 6.66
- Kb [12]: 69 nM
- Antagonist activity weaker than reference antagonist SB-269970 [12]: 51-147 fold
- Emax [12]: 0%

Structure (SMILES): CC(NC(C)(C)C)C(=O)c1cccc(Cl)c1 (stereo not shown) [bupropion, reference compound]
- Effect on immobility time, given alone at sub-effective dose [2]: did not affect

Structure (SMILES): Cc1ccc(N(CC2=NCCN2)c2cccc(O)c2)cc1 [Phentolamine, phentolamine, reference compound]
- pKi [6]: 8.05

Structure (SMILES): N[C@@H](Cc1ccc(Cl)cc1)C(=O)O (racemic) [pCPA, p-Chlorophenylalanine, reference compound]
- Effect on the number of punished crossings, given alone [1, 19]: showed no effect; also recorded: had no effect
- Reduction of the levels of serotonin in cortex [13]: around 30%
- Reduction of the levels of serotonin in diencephalon [13]: ~35%
- Reduction of the levels of serotonin in midbrain [13]: ~24%
- Reduction of the levels of serotonin in pons & medulla [13]: ~34%
- Effect on immobility, given alone [2, 19]: did not influence immobility time

Structure (SMILES): CN1C(=O)CN=C(c2ccccc2)c2cc(Cl)ccc21 [Diazepam, diazepam, reference compound]
- Increase of the percentage of open-arm entries [5, 17]: 131%
- Increase of the percentage of time spent in the open arms [5, 17]: 672%
- Increase of the number of punished crossings [1, 16]: 62%
- Increase of the number of punished crossings [1, 17]: 73%

Structure (SMILES): CNCCC(Oc1ccc(C(F)(F)F)cc1)c1ccccc1 (stereo not shown) [fluoxetine, reference compound]
- Effect on immobility time, given alone at sub-effective dose [2]: did not affect

Structure (SMILES): COc1ccccc1N1CCN(CCOCCOc2c(C)cccc2C)CC1 [HBK-14, 1-{2-[2-(2,6-dimethlphenoxy)ethoxy]ethyl}-4-(2-methoxyphenyl)piperazynine hydrochloride]
- pKi [4]: 6.81
- Increase of the percentage of open-arm entries [5, 17]: 90%
- Increase of the percentage of time spent in the open arms [5, 17]: 591%
- pKi [6]: 7.64
- pKi [7]: 6.66
- Increase of swimming behaviour ([3]; 5 mg/kg i.p.): 185%
- Decrease of immobility time [3, 15]: 38%
- Effect on duration of climbing [3, 14]: no significant effect
- Increase of the number of punished crossings [1, 17]: 68%
- Increase of the number of punished crossings [1, 18]: 105%
- Increase of the number of punished crossings [1, 15]: 87%
- pKi [8]: 6.58
- pKi [9]: 7.39
- pKi [10]: 5.00
- Decrease of immobility time [2, 17]: 30%
- Reduction of immobility ([2]; 2.5 mg/kg i.p., pCPA interaction experiment (Fig 5A)): 25%
- Decrease of immobility time [2, 15]: 31%
- Effect on immobility time, given alone at sub-effective dose [2]: none of tested compounds (HBK-14 1.25 mg/kg and HBK-15 0.625 mg/kg) administered alone affected the mouse immobility
- pKi [11]: 5.46
- pIC50 [12]: 7.11
- Kb [12]: 24 nM
- Antagonist activity weaker than reference antagonist SB-269970 [12]: 51-147 fold
- Emax [12]: 19%

Structure (SMILES): CCOc1ccccc1OC(c1ccccc1)C1CNCCO1 (stereo not shown) [reboxetine, reference compound]
- Effect on immobility time, given alone at sub-effective dose [2]: did not affect

Structure (SMILES): CN(C)CCC[C@@]1(c2ccc(F)cc2)OCc2cc(C#N)ccc21 [Escitalopram, escitalopram, reference compound]
- Increase of swimming ([3]; 30 mg/kg i.p.): 171%
- Decrease of immobility time ([3]; 30 mg/kg i.p. 30 min before test): 48%
- Effect on duration of climbing [3, 14]: no influence
- Decrease of immobility time [2, 17]: 42%
